The text below walks through data of patent US11944616B2 (INSTITUT NATIONAL DE LA SANTE ET DE LA RECHERCHE MEDICAL …, priority 2016, dated 2024).

Read-outs that look alike come from different tables or passages of the source.

For one data set, the system named is NMDAR. Briefly: NMDAR blocking activity using patch-clamp (whole-cell voltage clamp recordings from rat hippocampal neurons). The format is cell-based. Conditions: currents evoked by 100 μM NMDA and 20 μM D-serine, clamped at −60 mV.
Data set [1] can be described thus: In vivo brain penetration measurement (brain/plasma ratio Kp"brain") in rat. Particulars: for Kp at 3.45 h: brain (without cerebellum) and plasma, male Sprague-Dawley rat, 3.45 h constant-rate intravenous infusion, 4 mg/kg, mean of 3 rats ± standard deviation, read-out: Kp"brain" (total brain/plasma concentration ratio at steady state); for CNS / BBB penetration (in words): rat, conclusion from Kp"brain" values. As for the experimental part:
The femoral vein of male Sprague-Dawley rats (CRL) weighing around 250 g was surgically catheterized at least 72 hours prior to the experiment. 3 animals were performed for each compound tested. The drug was administered as 3.45 h constant-rate intravenous infusion to approach steady state, using a flow rate of 0.8 mL/h, corresponding to dosage of 4 mg/kg (1.067 mg/kg/h, i.e. 1 mg/rat of ˜250 g). The vehicle used was saline.
At the end of the infusion, the rats were anesthetized by inhalation of isoflurane, and blood was collected in a heparinized tube from the abdominal aorta, followed by immediate rinsing of the bloodstream for 2 minutes with saline at a rate of 15 mL/min using a peristaltic pump and left intraventricle cannula (flowing via right atrium). The brain (without cerebellum) was removed, and transferred in a tube and homogenized in two volumes of deionized water using a tissue homogenizer (Precellys24). All samples were stored at −20° C. until analysis. Plasma and brain homogenate sample preparation was performed using solid phase extraction on OASIS® WCX (Waters) and compounds were quantified by reversed phase liquid chromatography and positive electrospray ionization and multiple reaction monitoring mass spectrometry (LC-MS/MS).
This parameter is defined as the ratio of concentrations in brain and blood, Kp“brain” (Cbrain/Cplasma) or log(BB). Log(BB) is the logarithm of the ratio of the steady-state total concentration of a compound in the brain to that in the blood/plasma, log(BB)=log(Cbrain/Cplasma). This parameter depends upon the passive diffusion characteristics, the implication of membrane transporters at the BBB level and the relative drug binding affinity differences between the plasma proteins and brain tissue.

Take `CC(C)CC[N@+]1(C)[C@H]2Cc3ccccc3[C@]1(C)c1ccccc12`: the melting point was 215 to 217 °C. In turn, `CCC[N@+]1(C)[C@H]2Cc3ccccc3[C@]1(C)c1ccccc12` showed a melting point of 214 to 217 °C. Compound `CCCCCC[N@+]1(C)[C@H]2Cc3ccccc3[C@]1(C)c1ccccc12` showed a melting point of 200 to 203 °C. Compound `CCC(C)C[N@+]1(C)[C@H]2Cc3ccccc3[C@]1(C)c1ccccc12` (stereo partly shown) yielded a melting point of 181 to 184 °C. Consider `CC[N+]1(CC)[C@H]2Cc3ccccc3[C@]1(C)c1ccccc12`, for which the melting point was in the range of 237 to 238 °C. As for `C[C@@]12c3ccccc3C[C@@H](c3ccccc31)[N@@+]2(C)CC1CCCCC1`, the melting point lay within 220 to 222 °C. Same read-out and setting: the figure for `C[C@@]12c3ccccc3C[C@@H](c3ccccc31)[N@@+]2(C)Cc1ccccc1` is 220 to 222 °C; for `C[C@@]12c3ccccc3C[C@@H](c3ccccc31)[N@@+]2(C)CC1CCC1` it is 159 to 162 °C; for `C[C@@]12c3ccccc3C[C@@H](c3ccccc31)[N@@+]2(C)CC1(c2ccccc2)CC1` it is 174 to 176 °C.

Take `Cc1ccc(C[N@+]2(C)[C@H]3Cc4ccccc4[C@]2(C)c2ccccc23)cc1`: the melting point fell in the range of 134 to 136 °C. The compound `CC(C)(C)c1ccc(C[N@+]2(C)[C@H]3Cc4ccccc4[C@]2(C)c2ccccc23)cc1` showed a melting point of 152 to 154 °C. `COc1ccc(C[N@+]2(C)[C@H]3Cc4ccccc4[C@]2(C)c2ccccc23)cc1`: the melting point lay within 101 to 103 °C.

Compound `C[C@@]12c3ccccc3C[C@@H](c3ccccc31)[N@@+]2(C)Cc1ccc(Cl)cc1` gave a melting point of 160 to 162 °C.

`C[C@@]12c3ccccc3C[C@@H](c3ccccc31)[N@@+]2(C)Cc1ccccc1Cl`: the melting point was in the range of 129 to 131 °C.

Consider `Cc1ccccc1C[N@+]1(C)[C@H]2Cc3ccccc3[C@]1(C)c1ccccc12`, for which the melting point was in the range of 101 to 103 °C. For `C[C@@]12c3ccccc3C[C@@H](c3ccccc31)[N@@+]2(C)CCO`, the melting point was 216 to 219 °C. Turning to `C[C@@]12c3ccccc3C[C@@H](c3ccccc31)[N@@+]2(C)CC#N`, the melting point was 147 to 149 °C.

For the compound `CC(=O)NCC[N@+]1(C)[C@H]2Cc3ccccc3[C@]1(C)c1ccccc12`, the melting point lay within 216 to 218 °C.

Compound `C[C@@]12c3ccccc3C[C@@H](c3ccccc31)[N@@+]2(C)CC1(c2ccc(Cl)cc2)CC1` had a melting point of 162 to 164 °C. The compound `CC[N@@+]1(CC2CC2)[C@@H]2Cc3ccccc3[C@@]1(C)c1ccccc12` gave a melting point of 180 to 181 °C. As for `CC[N+]1(CC)[C@@H]2Cc3ccccc3[C@@]1(C)c1ccccc12`, the melting point lay within 218 to 219 °C. Same read-out and setting: the figure for `CCC[N@@+]1(CC2CC2)[C@@H]2Cc3ccccc3[C@@]1(C)c1ccccc12` is 203 to 204 °C. The same measure, in the same setting: for `CCCC[N@@+]1(CC2CC2)[C@@H]2Cc3ccccc3[C@@]1(C)c1ccccc12` the value was 171 to 172 °C; for `CCC[N@@+]1(CCO)[C@@H]2Cc3ccccc3[C@@]1(C)c1ccccc12`, 221 to 222 °C; for `CCCC[N@@+]1(CCO)[C@@H]2Cc3ccccc3[C@@]1(C)c1ccccc12`, 196 to 197 °C. In turn, `CC[N@@+]1(CCCCO)[C@@H]2Cc3ccccc3[C@@]1(C)c1ccccc12` returned a melting point of 201 to 202 °C. In the case of `C[C@]12c3ccccc3C[C@H](c3ccccc31)[N@@+]2(CCO)CC1CC1`, the melting point was in the range of 179 to 180 °C.

`C#CC[N@@+]1(CC2CC2)[C@@H]2Cc3ccccc3[C@@]1(C)c1ccccc12`: the melting point lay within 168 to 169 °C.

In turn, `C#CC[N@@+]1(CCO)[C@@H]2Cc3ccccc3[C@@]1(C)c1ccccc12` returned a melting point of 201 to 202 °C. Still for that read-out and setting: for `C=CC[N@@+]1(CC2CC2)[C@@H]2Cc3ccccc3[C@@]1(C)c1ccccc12` the value was 131 to 132 °C. `C=CC[N@@+]1(CCO)[C@@H]2Cc3ccccc3[C@@]1(C)c1ccccc12` gave a melting point of 196 to 197 °C. `COCC[N@+]1(C)[C@@H]2Cc3ccccc3[C@@]1(C)c1ccccc12` registered a melting point of 162 to 163 °C. The compound `C[C@@]12c3ccccc3C[C@@H](c3ccccc31)[N@@+]2(C)CC(N)=O` came in with a melting point of 189 to 192 °C. `C[C@@]12c3ccccc3C[C@@H](c3ccccc31)[N@@+]2(C)Cc1ccc(F)cc1` returned a melting point of 92 to 94 °C. Turning to `C[C@@]12c3ccccc3C[C@@H](c3ccccc31)[N@@+]2(C)Cc1cccc(C(F)(F)F)c1`, the melting point is 167 to 170 °C. Turning to `CC[N@@+]1(CCO)[C@H]2Cc3ccccc3[C@]1(C)c1ccccc12` (racemic) [Compound No 27], the melting point lay within 205 to 208 °C. Moreover, in the data set with NMDAR (read-out: IC50), the IC50 came out at 360 nM.

In turn, `C[C@@]12c3ccccc3C[C@@H](c3ccccc31)[N+]2(C)C` [Compound No 1] displayed a melting point of 270 to 280 °C. The IC50 with NMDAR (read-out: IC50) was 650 nM. In addition, in data set [1], the Kp at 3.45 h amounted to 0.3 ± 0.03 and the “CNS / BBB penetration (in words)” value was “do not penetrate the CNS”. Compound `CC[N@+]1(C)[C@H]2Cc3ccccc3[C@]1(C)c1ccccc12` [Compound No 2] gave a melting point of 230 to 232 °C. In the data set with NMDAR, the IC50 was 570 nM. On to `CCCC[N@+]1(C)[C@H]2Cc3ccccc3[C@]1(C)c1ccccc12` [Compound No 3], for which the melting point lay within 200 to 203 °C. The compound also returned an IC50 with NMDAR of 500 nM. Compound `CC(C)C[N@+]1(C)[C@H]2Cc3ccccc3[C@]1(C)c1ccccc12` [Compound No 4] came in with a melting point of 216 to 217 °C. The IC50 with NMDAR worked out at 820 nM. Compound `C[C@@]12c3ccccc3C[C@@H](c3ccccc31)[N@@+]2(C)CC1CC1` [Compound No 5] showed a melting point of 103 to 105 °C. The same compound returned an IC50 in the data set on NMDAR of 400 nM. For the compound `C[C@@]12c3ccccc3C[C@@H](c3ccccc31)[N@@+]2(C)CC1CCCC1` [Compound No 6], the melting point was in the range of 125 to 127 °C. The IC50 with NMDAR is 1100 nM. `CC[N@@+]1(CCO)[C@H]2Cc3ccccc3[C@]1(C)c1ccccc12` [Compound No 26] returned a melting point of 202 to 205 °C. The IC50 in the data set on NMDAR (read-out: IC50) stood at 400 nM. In data set [1], the Kp at 3.45 h amounted to 0.4 ± 0.08 and the “CNS / BBB penetration (in words)” value is on record as “do not penetrate the CNS”. Compound `CC[N@@+]1(CC2CC2)[C@H]2Cc3ccccc3[C@]1(C)c1ccccc12` [Compound No 31] had a melting point of 189 to 191 °C. Further, in the data set with NMDAR (read-out: IC50), the IC50 came to 270 nM. For `CC[N@@+]1(CCO)[C@H]2Cc3ccccc3[C@]1(C)c1ccccc12` [Compound No 32], the melting point lay within 115 to 120 °C.
